This note sets out measurements from US20190202840A1, “SALTS OF (S)-7-(1-(9H-PURIN-6-YLAMINO)ETHYL)-6-(3-FLUOROPHENYL)-3-METHYL-5H-THIAZOLO[3,2-A]PYRIMIDIN-5-ONE” (Incyte Corporation, priority 2015, published 2019).

The target of one test is T1, human JAK1 (Homo sapiens, UniProt P23458).
T1 construct: human JAK1 (a.a. 837-1142); made in house; host or cells: insect cells (baculovirus)
In words: In vitro JAK kinase assay (Example G, HTRF), JAK1. It counts as biochemical. Conditions: 1 mM ATP.

For the next test, the target named is T2, human JAK2 (Homo sapiens, UniProt O60674).
T2 construct: JAK2 (a.a. 828-1132); made in house; host or cells: insect cells (baculovirus)
Briefly: In vitro JAK kinase assay (Example G, HTRF), JAK2. It counts as biochemical. Conditions: ratio of IC50s JAK2 over JAK1, 1 mM ATP.

pIC50: −log10 of the molar value.

T1 sequence (P23458 849-1154): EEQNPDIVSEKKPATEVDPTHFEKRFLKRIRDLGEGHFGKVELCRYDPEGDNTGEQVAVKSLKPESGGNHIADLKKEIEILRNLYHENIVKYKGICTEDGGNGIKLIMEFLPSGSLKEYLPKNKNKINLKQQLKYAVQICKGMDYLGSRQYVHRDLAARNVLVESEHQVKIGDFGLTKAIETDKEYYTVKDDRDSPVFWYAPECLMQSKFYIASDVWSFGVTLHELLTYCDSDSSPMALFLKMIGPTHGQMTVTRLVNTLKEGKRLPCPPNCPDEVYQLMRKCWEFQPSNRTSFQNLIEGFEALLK
T2 sequence (O60674 828-1132): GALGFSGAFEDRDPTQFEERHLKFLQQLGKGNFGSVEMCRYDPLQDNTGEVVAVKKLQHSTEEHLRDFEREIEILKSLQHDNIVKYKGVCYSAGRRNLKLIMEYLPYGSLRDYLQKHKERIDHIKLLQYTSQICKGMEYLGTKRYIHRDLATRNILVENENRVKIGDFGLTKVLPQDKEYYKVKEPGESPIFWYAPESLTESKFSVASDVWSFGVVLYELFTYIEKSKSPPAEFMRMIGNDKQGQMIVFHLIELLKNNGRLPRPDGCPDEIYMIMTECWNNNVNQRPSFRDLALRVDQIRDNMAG

Consider `CCNCc1cc(O[C@H]2CC[C@@H](N3CC(CC#N)(n4cc(-c5ncnc6[nH]ccc56)cn4)C3)CC2)nc(C(F)(F)F)c1` [Compound 19, {1-(cis-4-{[4-[(ethylamino)methyl]-6-(trifluoromethyl)pyridin-2-yl]oxy}cyclohexyl)-3-[4-(7H-pyrrolo[2,3-d]pyrimidin-4-yl)-1H-pyrazol-1-yl]azetidin-3-yl}acetonitrile], for which the negative logarithm of the IC50 (pIC50) at human JAK1 is greater than 8.00. Further, the JAK2/JAK1 on human JAK2 was greater than 10.
Turning to `N#CC[C@]1(n2cc(-c3ncnc4[nH]ccc34)cn2)C[C@H](N2CCN(C(=O)c3ccnc(C(F)(F)F)n3)CC2)C1` [Compound 10, [trans-1-[4-(7H-pyrrolo[2,3-d]pyrimidin-4-yl)-1H-pyrazol-1-yl]-3-(4-{[2-(trifluoromethyl)pyrimidin-4-yl]carbonyl}piperazin-1-yl)cyclobutyl]acetonitrile], the pIC50 at human JAK1 is greater than 8.00. For the same compound, the JAK2/JAK1 on human JAK2 is greater than 10.
Consider `CC(C)(O)c1cc(O[C@H]2CC[C@@H](N3CC(CC#N)(n4cc(-c5ncnc6[nH]ccc56)cn4)C3)CC2)nc(C(F)(F)F)c1` [Compound 20, {1-(cis-4-{[4-(1-hydroxy-1-methylethyl)-6-(trifluoromethyl)pyridin-2-yl]oxy}cyclohexyl)-3-[4-(7H-pyrrolo[2,3-d]pyrimidin-4-yl)-1H-pyrazol-1-yl]azetidin-3-yl}acetonitrile], for which the negative logarithm of the IC50 (pIC50) against human JAK1 was greater than 8.00. For the same compound, at human JAK2, the JAK2/JAK1 was greater than 10.
At human JAK1, `C[C@H](NC(=O)c1cc(F)c(N2CC(CC#N)(n3cc(-c4ncnc5[nH]ccc45)cn3)C2)cc1F)C(F)(F)F` [Compound 16, 4-{3-(cyanomethyl)-3-[4-(7H-pyrrolo[2,3-d]pyrimidin-4-yl)-1H-pyrazol-1-yl]azetidin-1-yl}-2,5-difluoro-N-[(1S)-2,2,2-trifluoro-1-methylethyl]benzamide] gave a pIC50 greater than 8.00. Besides, the JAK2/JAK1 at human JAK2 is reported as greater than 10.
For `N#CC[C@]1(n2cc(-c3ncnc4[nH]ccc34)cn2)C[C@H](N2CCC(Oc3cc(CN4CCC[C@H]4CO)cc(C(F)(F)F)n3)CC2)C1` [Compound 12, {trans-3-(4-{[4-{[(2S)-2-(hydroxymethyl)pyrrolidin-1-yl]methyl}-6-(trifluoromethyl)pyridin-2-yl]oxy}piperidin-1-yl)-1-[4-(7H-pyrrolo[2,3-d]pyrimidin-4-yl)-1H-pyrazol-1-yl]cyclobutyl}acetonitrile], in that order: greater than 8.00 and greater than 10.
In the case of `N#CCC1(n2cc(-c3ncnc4[nH]ccc34)cn2)CN([C@H]2CC[C@@H](Oc3cc(CCO)nc(C(F)(F)F)n3)CC2)C1` [Compound 18, {1-(cis-4-{[6-(2-hydroxyethyl)-2-(trifluoromethyl)pyrimidin-4-yl]oxy}cyclohexyl)-3-[4-(7H-pyrrolo[2,3-d]pyrimidin-4-yl)-1H-pyrazol-1-yl]azetidin-3-yl}acetonitrile], at human JAK1, the pIC50 is greater than 8.00. Further, at human JAK2, the JAK2/JAK1 is greater than 10.
For `C[C@@H](O)CNCc1cc(OC2CCN([C@H]3C[C@](CC#N)(n4cc(-c5ncnc6[nH]ccc56)cn4)C3)CC2)nc(C(F)(F)F)c1` [Compound 24, {trans-3-(4-{[4-({[(2R)-2-hydroxypropyl]amino}methyl)-6-(trifluoromethyl)pyridin-2-yl]oxy}piperidin-1-yl)1-[4-(7H-pyrrolo[2,3-d]pyrimidin-4-yl)-1H-pyrazol-1-yl]cyclobutyl}acetonitrile], in that order: greater than 8.00 and greater than 10.
Compound `C[C@@H](CO)NCc1cc(OC2CCN([C@H]3C[C@](CC#N)(n4cc(-c5ncnc6[nH]ccc56)cn4)C3)CC2)nc(C(F)(F)F)c1` [Compound 23, {trans-3-(4-{[4-({[(1S)-2-hydroxy-1-methylethyl]amino}methyl)-6-(trifluoromethyl)pyridin-2-yl]oxy}piperidin-1-yl)-1-[4-(7H-pyrrolo[2,3-d]pyrimidin-4-yl)-1H-pyrazol-1-yl]cyclobutyl}acetonitrile] showed a pIC50 on human JAK1 greater than 8.00. Besides, at human JAK2, the JAK2/JAK1 was greater than 10.
`N#CCC1(n2cc(-c3ncnc4[nH]ccc34)cn2)CN(C2CCN(C(=O)c3ccnc(C(F)(F)F)n3)CC2)C1` [Compound 9, [3-[4-(7H-pyrrolo[2,3-d]pyrimidin-4-yl)-1H-pyrazol-1-yl]-1-(1-{[2-(trifluoromethyl)pyrimidin-4-yl]carbonyl}piperidin-4-yl)azetidin-3-yl]acetonitrile]: the pIC50 against human JAK1 is greater than 8.00. In addition, on human JAK2, the JAK2/JAK1 is on record as greater than 10.
At human JAK1, `N#CCC1(n2cc(-c3ncnc4[nH]ccc34)cn2)CN(C2CCN(C(=O)c3ccnc(C(F)(F)F)c3F)CC2)C1` [Compound 7, {1-{1-[3-Fluoro-2-(trifluoromethyl)isonicotinoyl]piperidin-4-yl}-3-[4-(7H-pyrrolo[2,3-d]pyrimidin-4-yl)-1H-pyrazol-1-yl]azetidin-3-yl}acetonitrile] had a pIC50 greater than 8.00. Besides, the JAK2/JAK1 at human JAK2 was greater than 10.
On to `N#CCC(C1CCN(c2cccc(Cl)n2)C1)n1cc(-c2ncnc3[nH]ccc23)cn1` (single isomer, unassigned) [Compound 3, 3-[1-(6-chloropyridin-2-yl)pyrrolidin-3-yl]-3-[4-(7H-pyrrolo[2,3-d]pyrimidin-4-yl)-1H-pyrazol-1-yl]propanenitrile], for which the pIC50 at human JAK1 is greater than 8.00. On human JAK2, the JAK2/JAK1 is listed as greater than 10.
Regarding `N#CCC(CN1CCN(C(=O)c2ccc(C#N)cc2F)CC1)n1cc(-c2ncnc3[nH]ccc23)cn1` (stereo not drawn) [Compound 5, 4-[(4-{3-cyano-2-[4-(7H-pyrrolo[2,3-d]pyrimidin-4-yl)-1H-pyrazol-1-yl]propyl}piperazin-1-yl)carbonyl]-3-fluorobenzonitrile], the pIC50 on human JAK1 was greater than 8.00. Besides, the JAK2/JAK1 on human JAK2 is reported as greater than 10.
At human JAK1, `N#CCC(C1CCN(c2nc3cccnc3o2)C1)n1cc(-c2ncnc3[nH]ccc23)cn1` (stereo not drawn) [Compound 4, 3-(1-[1,3]oxazolo[5,4-b]pyridin-2-ylpyrrolidin-3-yl)-3-[4-(7H-pyrrolo[2,3-d]pyrimidin-4-yl)-1H-pyrazol-1-yl]propanenitrile] had a pIC50 greater than 8.00. Further, at human JAK2, the JAK2/JAK1 is on record as greater than 10.
Compound `N#CCC1(n2cc(-c3ncnc4[nH]ccc34)cn2)CN(C2CCN(C(=O)Nc3ccc(F)cc3C(F)(F)F)CC2)C1` [Compound 8, 4-{3-(Cyanomethyl)-3-[4-(7H-pyrrolo[2,3-d]pyrimidin-4-yl)-1H-pyrazol-1-yl]azetidin-1-yl}-N-[4-fluoro-2-(trifluoromethyl)phenyl]piperidine-1-carboxamide] had a pIC50 against human JAK1 greater than 8.00. The JAK2/JAK1 at human JAK2 is given as greater than 10.
With `N#CC[C@]1(n2cc(-c3ncnc4[nH]ccc34)cn2)C[C@H](N2CCC(Oc3cc(CCO)cc(C(F)(F)F)n3)CC2)C1` [Compound 26, {trans-3-(4-{[4-(2-hydroxyethyl)-6-(trifluoromethyl)pyridin-2-yl]oxy}piperidin-1-yl)-1-[4-(7H-pyrrolo[2,3-d]pyrimidin-4-yl)-1H-pyrazol-1-yl]cyclobutyl}acetonitrile], on human JAK1, the pIC50 is greater than 8.00. Moreover, the JAK2/JAK1 at human JAK2 is reported as greater than 10.
For `C[C@H](O)CNCc1cc(OC2CCN([C@H]3C[C@](CC#N)(n4cc(-c5ncnc6[nH]ccc56)cn4)C3)CC2)nc(C(F)(F)F)c1` [Compound 25, {trans-3-(4-{[4-({[(2S)-2-hydroxypropyl]amino}methyl)-6-(trifluoromethyl)pyridin-2-yl]oxy}piperidin-1-yl)-1-[4-(7H-pyrrolo[2,3-d]pyrimidin-4-yl)-1H-pyrazol-1-yl]cyclobutyl}acetonitrile], in that order: greater than 8.00 and greater than 10.
For the compound `C[C@@H](O)c1nc2cnc3ccsc3c2n1[C@H]1CC[C@H](CC#N)OC1` [Compound 1, ((2R,5S)-5-{2-[(1R)-1-hydroxyethyl]-1H-imidazo[4,5-d]thieno[3,2-b]pyridin-1-yl}tetrahydro-2H-pyran-2-yl)acetonitrile], on human JAK1, the negative logarithm of the IC50 (pIC50) is greater than 7.00. Moreover, on human JAK2, the JAK2/JAK1 is reported as greater than 10.
With `N#CC[C@]1(n2cc(-c3ncnc4[nH]ccc34)cn2)C[C@H](N2CCC(Oc3cc(CN4CC(O)C4)cc(C(F)(F)F)n3)CC2)C1` [Compound 11, {trans-3-(4-{[4-[(3-hydroxyazetidin-1-yl)methyl]-6-(trifluoromethyl)pyridin-2-yl]oxy}piperidin-1-yl)-1-[4-(7H-pyrrolo[2,3-d]pyrimidin-4-yl)-1H-pyrazol-1-yl]cyclobutyl}acetonitrile], at human JAK1, the pIC50 was greater than 8.00. Further, the JAK2/JAK1 on human JAK2 was greater than 10.
The like results for `N#CCC1(n2cc(-c3ncnc4[nH]ccc34)cn2)CN([C@H]2CC[C@@H](Oc3cc(CN4CC[C@@H](O)C4)cc(C(F)(F)F)n3)CC2)C1` [Compound 21, {1-(cis-4-{[4-{[(3R)-3-hydroxypyrrolidin-1-yl]methyl}-6-(trifluoromethyl)pyridin-2-yl]oxy}cyclohexyl)-3-[4-(7H-pyrrolo[2,3-d]pyrimidin-4-yl)-1H-pyrazol-1-yl]azetidin-3-yl}acetonitrile] were, in that order, greater than 8.00 and greater than 10.
On human JAK1, `N#CC[C@]1(n2cc(-c3ncnc4[nH]ccc34)cn2)C[C@H](N2CCC(Oc3cc(CN4CCC[C@@H]4CO)cc(C(F)(F)F)n3)CC2)C1` [Compound 13, {trans-3-(4-{[4-{[(2R)-2-(hydroxymethyl)pyrrolidin-1-yl]methyl}-6-(trifluoromethyl)pyridin-2-yl]oxy}piperidin-1-yl)-1-[4-(7H-pyrrolo[2,3-d]pyrimidin-4-yl)-1H-pyrazol-1-yl]cyclobutyl}acetonitrile] showed a pIC50 greater than 8.00. Moreover, on human JAK2, the JAK2/JAK1 is greater than 10.
As for `N#CCC1(n2cc(-c3ncnc4[nH]ccc34)cn2)CN([C@H]2CC[C@@H](Oc3cc(CN4CC[C@H](O)C4)cc(C(F)(F)F)n3)CC2)C1` [Compound 22, {1-(cis-4-{[4-{[(3S)-3-hydroxypyrrolidin-1-yl]methyl}-6-(trifluoromethyl)pyridin-2-yl]oxy}cyclohexyl)-3-[4-(7H-pyrrolo[2,3-d]pyrimidin-4-yl)-1H-pyrazol-1-yl]azetidin-3-yl}acetonitrile], the negative-log IC50 (pIC50) on human JAK1 is greater than 8.00. Moreover, the JAK2/JAK1 on human JAK2 is greater than 10.

For orientation: pIC50 means the IC50 on a negative log10 scale, so that one unit is a factor of ten. A high value points to a low IC50.
